In general, melting point refers to the temperature, or range, at which the solid turns liquid.

The target of data set [1] is T1, FAAH (Mus musculus, UniProt O08914).
T1 construct: A fragment of liver and brain without cerebellum were removed and put in plastic vials containing membrane buffer; from tissue; host or cells: brain (without cerebellum) and liver homogenates of male NMRI mice
T1 sequence (O08914 1-579): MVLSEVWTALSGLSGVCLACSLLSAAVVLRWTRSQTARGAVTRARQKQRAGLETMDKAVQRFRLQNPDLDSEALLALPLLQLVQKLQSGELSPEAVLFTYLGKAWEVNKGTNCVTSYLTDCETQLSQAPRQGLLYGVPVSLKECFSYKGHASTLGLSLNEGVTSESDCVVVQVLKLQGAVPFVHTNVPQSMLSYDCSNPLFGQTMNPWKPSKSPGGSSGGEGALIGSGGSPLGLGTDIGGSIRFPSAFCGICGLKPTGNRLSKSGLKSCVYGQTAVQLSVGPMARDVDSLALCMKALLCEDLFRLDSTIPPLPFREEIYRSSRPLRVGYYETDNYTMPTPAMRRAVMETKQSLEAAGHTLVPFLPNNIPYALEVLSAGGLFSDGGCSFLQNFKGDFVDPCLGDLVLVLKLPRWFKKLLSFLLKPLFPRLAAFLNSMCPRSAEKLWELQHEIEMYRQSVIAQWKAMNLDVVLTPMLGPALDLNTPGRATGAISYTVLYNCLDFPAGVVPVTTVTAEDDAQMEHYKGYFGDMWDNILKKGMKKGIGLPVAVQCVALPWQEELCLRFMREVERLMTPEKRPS
Description: FAAH activity in brain homogenate after oral dosing of mice. Format: in vivo. Particulars: 8 h, remaining activity vs controls, low value = strong inhibitor, read-out: FAAH Activity (%) Br h. The method, then:
(§1) In vivo testing was performed according to the protocol described below. BRh (brain homogenate) indicates inhibition in central nervous tissue, in this case, brain, and LVh (liver homogenate) indicates inhibition in peripheral tissue, in this case, liver. The controls were the reaction mix minus the test compounds. Therefore, a low value for the test compound indicates a strong inhibitor.
(§2) The animals used for experiments were male NMRI mice (weighing 27-44 g) obtained from Interfauna Ibérica (Spain). Mice were kept 5 per cage, under controlled environmental conditions (12 hr light/dark cycle and room temperature 22±1° C.). Food and tap water were allowed ad libitum and the experiments were all carried out during daylight hours.
(§3) Animals were always fasted overnight before administration of compounds.
(§4) Animals were administered the appropriate dose of the compound of the invention via oral route (8 ml/kg; compound suspended in 0.5% carboxymethylcellulose (CMC) or solubilized in water) or vehicle (controls) using animal feeding stainless steel curve needles (Perfectum, U.S.A.). Fifteen minutes before sacrifice animal were anesthetized with pentobarbital 60 mg/kg administered intraperitoneally. A fragment of liver and brain without cerebellum were removed and put in plastic vials containing membrane buffer (3 mM MgCl2, 1 mM EDTA, 50 mM Tris HCl pH 7.4). Tissues were stored at −30° C. until analysis.
Anandamide [ethanolamine-1-^3H-] (40-60 Ci/mmol) was obtained from American Radiochemicals. All other reagents were obtained from Sigma-Aldrich. […]
(§5) Total protein in tissues was determined with the BioRad Protein Assay (BioRad) using a standard curve of BSA (50-250 μg/ml).
Reaction mix (total volume of 200 μl) contained: 2 μM AEA (2 μM AEA+5 nM ^3H-AEA), 0.1% fatty acid free BSA, 15 μg (brain) or 5 μg (liver) protein, in 1 mM EDTA, 10 mM Tris pH 7.6. […] Counts per minute (cpm) were determined in a MicrobetaTriLux scintillation counter. […]
(§6) The percentage of remaining enzymatic activity was calculated with respect to controls and after blank subtraction.

Data set [2] concerns the target T1, FAAH. Description: FAAH activity in liver homogenate after oral dosing of mice. The class given is in vivo. The settings on record: for Peripheral Selectivity: FAAH activity in the liver divided by FAAH activity in the brain (3 mg/kg, 8 h, po), lower = peripherally more selective; for activity at 0.1 mg/kg / activity at 0.01 mg/kg / activity at 0.03 mg/kg / activity at 0.3 mg/kg / activity at 3 mg/kg / activity at 1 mg/kg: mouse, po; for activity at 3 mg/kg: liver homogenate, remaining activity vs controls, read-out: FAAH Activity (%) Lv h. The method, then:
as §1, §2, §3, §4
Anandamide [ethanolamine-1-^3H-] (40-60 Ci/mmol) was obtained from American Radiochemicals. All other reagents were obtained from Sigma-Aldrich. Optiphase Supermix was obtained from Perkin Elmer and activated charcoal was obtained from Sigma-Aldrich.
Tissues were thawed on ice and were homogenized in 10 volumes of membrane buffer (3 mM MgCl2, 1 mM EDTA, 50 mM Tris HCl pH 7.4) with either Potter-Elvejhem (brains—8 strokes at 500 rpm) or Heidolph Diax (livers—2 strokes at position 5 for 20 sec with 30 sec pauses).
as §5
Reaction mix (total volume of 200 μl) contained: 2 μM AEA (2 μM AEA+5 nM ^3H-AEA), 0.1% fatty acid free BSA, 15 μg (brain) or 5 μg (liver) protein, in 1 mM EDTA, 10 mM Tris pH 7.6. After a 15 min pre-incubation period at 37° C., reaction was started by the addition of the substrate solution (cold AEA+radiolabelled AEA+BSA). Reaction was carried out for 10 min (brain) or 7 min (liver) before termination by the addition of 400 μl activated charcoal suspension (8 g charcoal in 32 ml 0.5 M HCl in continuous agitation). After a 30 min incubation period at room temperature with agitation, charcoal was sedimented by centrifugation in microfuge (10 min at 13000 rpm). 200 μl of the supernatant were added to 800 μl Optiphase Supermix scintillation cocktail previously distributed in 24-well plates. Counts per minute (cpm) were determined in a MicrobetaTriLux scintillation counter.
In each assay blanks (without protein) were prepared.
as §6

A short description of data set [3]: CYPs metabolic stability assay in HLM. Particulars: 1 h, 5 μM compound; for Metabolic Stability (% of Remaining) Human CYP+: with NADPH; for Metabolic Stability (% of Remaining) Human CYP−: without NADPH (control value). The class given is in vitro ADME, human. On the procedure: Stability of the test compounds was performed in MLM (mouse liver microsomes) or HLM (human liver microsomes) in the presence and in the absence of NADPH.
The stability was measured using the incubation mixture (100 μl total volume) contained 1 mg/ml total protein, MgCl2 5 mM and 50 mM K-phosphate buffer. Samples were incubated in the presence and in the absence of NADPH 1 mM. Reactions were pre-incubated 5 min and the reaction initiated with the compound under test (5 μM for HLM and 50 μM for MLM). Samples were incubated for 60 min in a shaking water bath at 37° C. The reaction was stopped by adding 100 μl of acetonitrile. Samples were then centrifuged, filtered and supernatant injected in HLPC-MSD. Test compounds were dissolved in DMSO and the final concentration of DMSO in the reaction was below 0.5% (v/v). At T0 acetonitrile was added before adding the compound. All experiments were performed with samples in duplicate.
The stability data are given as % of remaining compound after 1 h exposure to MLM or HLM. 100% means no metabolic reaction at all and 0% corresponds to full enzymatic degradation. “CYP−” refers to the absence of cofactor (NADPH) which is essential for CYP metabolic reactions. Therefore “CYP−” can be regarded as control value. “CYP+” refers to the presence of cofactor and the enzymatic degradation may take place according to the stability of the test compound.

Consider `Cc1cc(-c2cn(C(=O)N(C)C3CCN(C(=O)C4CC4)CC3)cn2)ccc1O` [Compound 3, N-(1-(Cyclopropanecarbonyl)piperidin-4-yl)-4-(4-hydroxy-3-methylphenyl)-N-methyl-1H-imidazole-1-carboxamide], for which the melting point was 204 °C. Besides, on FAAH [1], the activity at 3 mg/kg turned out to be 91.7%. In addition, the “Peripheral Selectivity” value on FAAH [2] was found to be 0.020. On FAAH [2] (1 h), the activity at 0.1 mg/kg came to 37.9%. Moreover, at FAAH [2] (8 h), the activity at 0.01 mg/kg was found to be 56.3%, the activity at 0.03 mg/kg came out at 53%, the activity at 0.1 mg/kg came out at 10.7% and the activity at 0.3 mg/kg came out at 7.2%. For the same compound, at FAAH [2] (8 h), the activity at 3 mg/kg is 1.8%. For the same compound, in data set [3], the “Metabolic Stability (% of Remaining) Human CYP+” value was 99% and the “Metabolic Stability (% of Remaining) Human CYP−” value came to 102%.
Regarding `CN(C(=O)n1cnc(-c2cccc(NS(N)(=O)=O)c2)c1)C1CCOCC1` [Compound 1, N-Methyl-4-(3-(sulfamoylamino)phenyl)-N-(tetrahydro-2H-pyran-4-yl)-1H-imidazole-1-carboxamide], the melting point is 128 °C. In addition, the activity at 3 mg/kg on FAAH [1] was 117%. The “Peripheral Selectivity” value on FAAH [2] came to 0.042. The activity at 1 mg/kg on FAAH [2] (1 h) came to 8.5%. Also, at FAAH [2] (8 h), the activity at 0.3 mg/kg was found to be 36.1% and the activity at 3 mg/kg is 4.9%. In addition, in data set [3], the “Metabolic Stability (% of Remaining) Human CYP+” value was 96% and the “Metabolic Stability (% of Remaining) Human CYP−” value stood at 102%.
In turn, `CCC(=O)N1CCC(N(C)C(=O)n2cnc(-c3ccc(O)c(C)c3)c2)CC1` [Compound 2, 4-(4-Hydroxy-3-methylphenyl)-N-methyl-N-(1-propionylpiperidin-4-yl)-1H-imidazole-1-carboxamide] had a melting point of 232 °C. Further, at FAAH [1], the activity at 3 mg/kg worked out at 81.7%. For the same compound, the “Peripheral Selectivity” value on FAAH [2] is on record as 0.018. Besides, at FAAH [2] (1 h), the activity at 0.1 mg/kg came to 21.9% and the activity at 1 mg/kg turned out to be 2.3%. At FAAH [2] (8 h), the activity at 0.01 mg/kg was 48.2%, the activity at 0.03 mg/kg turned out to be 42.9%, the activity at 0.1 mg/kg worked out at 6.7% and the activity at 0.3 mg/kg is 5.6%. Besides, the activity at 3 mg/kg at FAAH [2] (8 h) stood at 1.5%. In data set [3], the “Metabolic Stability (% of Remaining) Human CYP+” value turned out to be 100% and the “Metabolic Stability (% of Remaining) Human CYP−” value worked out at 94%.

For the origin of these results see patent US10501447B2, “Imidazolecarboxamides and their use as FAAH inhibitors” (BIAL-PORTELA & Ca, S.A., priority 2013, dated 2019).
